Reference: PubChem BioAssay (NCI)
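In this assay, cells in 96-well plates receive the compound at five concentrations for 48 hours. Endpoints are linearly interpolated between the surrounding concentrations. GI50 marks 50% less growth. The concentration for full growth arrest is given as TGI.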

Legend:
Assay in all cases: DTP human tumour cell line panel, 48 h
MDA-MB-231 breast = test system: MDA-MB-231 breast
PC-3 prostate = test system: PC-3 prostate
SK-MEL-28 melanoma = test system: SK-MEL-28 melanoma
MCF7 breast = test system: MCF7 breast
NCI-H522 lung = test system: NCI-H522 lung
UACC-62 melanoma = test system: UACC-62 melanoma
HL-60(TB) leukemia = test system: HL-60(TB) leukemia
NCI-H226 lung = test system: NCI-H226 lung
SF-539 CNS = test system: SF-539 CNS
SF-268 CNS = test system: SF-268 CNS
UO-31 renal = test system: UO-31 renal
MDA-MB-468 breast = test system: MDA-MB-468 breast
OVCAR-4 ovarian = test system: OVCAR-4 ovarian
ACHN renal = test system: ACHN renal
A498 renal = test system: A498 renal
SF-295 CNS = test system: SF-295 CNS
HT29 colon = test system: HT29 colon
TK-10 renal = test system: TK-10 renal
OVCAR-5 ovarian = test system: OVCAR-5 ovarian
CCRF-CEM leukemia = test system: CCRF-CEM leukemia
SK-OV-3 ovarian = test system: SK-OV-3 ovarian
MALME-3M melanoma = test system: MALME-3M melanoma
OVCAR-8 ovarian = test system: OVCAR-8 ovarian
T-47D breast = test system: T-47D breast
SK-MEL-2 melanoma = test system: SK-MEL-2 melanoma
IGROV1 ovarian = test system: IGROV1 ovarian
NCI/ADR-RES ovarian = test system: NCI/ADR-RES ovarian

`CN1CCCN(Cc2ccc(C(=O)Nc3cccc(Nc4ccc5c(O)cccc5n4)c3)cc2C(F)(F)F)CC1` gave a GI50 (MDA-MB-231 breast) of 1.65 µM, a TGI (MDA-MB-231 breast) of 3.18 µM and a GI50 (PC-3 prostate) of 1.87 µM. It also gave a TGI (PC-3 prostate) of 5.73 µM, a GI50 (SK-MEL-28 melanoma) of 1.82 µM and a TGI (SK-MEL-28 melanoma) of 3.27 µM. The GI50 (MCF7 breast) was 1.68 µM, the TGI (MCF7 breast) was 3.2 µM and the GI50 (NCI-H522 lung) was 1.84 µM. For the same molecule, the TGI (NCI-H522 lung) was 3.51 µM, the GI50 (UACC-62 melanoma) was 1.69 µM and the TGI (UACC-62 melanoma) was 3.13 µM. It also gave a GI50 (HL-60(TB) leukemia) of 2.35 µM, a TGI (HL-60(TB) leukemia) of 5.52 µM and a GI50 (NCI-H226 lung) of 16.7 µM. The TGI (NCI-H226 lung) was 46.8 µM, the GI50 (SF-539 CNS) was 1.7 µM and the TGI (SF-539 CNS) was 3.12 µM. For the same molecule, the GI50 (SF-268 CNS) was 2.14 µM, the TGI (SF-268 CNS) was 5.24 µM and the GI50 (UO-31 renal) was 2.04 µM. For the same molecule, the TGI (UO-31 renal) was 4.96 µM, the GI50 (MDA-MB-468 breast) was 1.66 µM and the TGI (MDA-MB-468 breast) was 3.13 µM. It also gave a GI50 (OVCAR-4 ovarian) of 3.83 µM, a TGI (OVCAR-4 ovarian) of 15.4 µM and a GI50 (ACHN renal) of 1.92 µM. The TGI (ACHN renal) was 3.74 µM, the GI50 (A498 renal) was 15.3 µM and the TGI (A498 renal) was 29 µM. The GI50 (SF-295 CNS) was 1.67 µM, the TGI (SF-295 CNS) was 3.07 µM and the GI50 (HT29 colon) was 1.92 µM. It also gave a TGI (HT29 colon) of 3.76 µM, a GI50 (TK-10 renal) of 2.8 µM and a TGI (TK-10 renal) of 8.95 µM. It also gave a GI50 (OVCAR-5 ovarian) of 11.4 µM, a TGI (OVCAR-5 ovarian) of 23.9 µM and a GI50 (CCRF-CEM leukemia) of 2.07 µM. The TGI (CCRF-CEM leukemia) was > 100 µM, the GI50 (SK-OV-3 ovarian) was 11.1 µM and the TGI (SK-OV-3 ovarian) was 27.1 µM. The GI50 (MALME-3M melanoma) was 1.7 µM, the TGI (MALME-3M melanoma) was 3.14 µM and the GI50 (OVCAR-8 ovarian) was 2.51 µM. For the same molecule, the TGI (OVCAR-8 ovarian) was 6.22 µM, the GI50 (T-47D breast) was 3.46 µM and the TGI (T-47D breast) was 13.3 µM. For the same molecule, the GI50 (SK-MEL-2 melanoma) was 1.81 µM, the TGI (SK-MEL-2 melanoma) was 3.46 µM and the GI50 (IGROV1 ovarian) was 2.56 µM. It also gave a TGI (IGROV1 ovarian) of 6.88 µM and a GI50 (NCI/ADR-RES ovarian) of 6.43 µM.
